Read-outs that look alike come from different tables or passages of the source.
Columns and labels:
[1] = tested on: human lymphoblast RPMI 8402; assay: MTT cytotoxicity assay (Test B), RPMI 8402; format: cell-based; settings: RPMI 8402 cells, continuous exposure four days, read-out: Cytotoxicity (IC50 values (μM) RPMI8402)
Method: (§1) Test B. Cytotoxic assays (cancer cell lines and efflux transporter cell lines)
(§2) The cytotoxicity was determined using the MTT-microtiter plate tetrazolinium cytotoxicity assay (MTA). The human lymphoblast RPMI 8402 and its camptothecin-resistant variant cell line, CPT-K5 was provided by Dr. Toshiwo Andoh (Aichi Cancer Center Research Institute, Nagoya, Japan). The P388 mouse leukemia cell line and its CPT-resistant TOP1-deficient variant P388/CPT45 were obtained from Michael R. Mattern and Randal K. Johnson (GlaxoSmithKline, King of Prussia, Pa.). The KB3-1 cell line and its multidrug-resistant variant KBV-1 were obtained from K.V. Chin (The Cancer Institute of New Jersey, New Brunswick, N.J.). The KBH5.0 cell line as noted previously was derived from KB3-1 by stepwise selection against Hoechst 33342. The cytotoxicity assay was performed using 96-well microtiter plates. Cells were grown in suspension at 37° C. in 5% CO2 and maintained by regular passage in RPMI medium supplemented with 10% heat inactivated fetal bovine serum, L-glutamine (2 mM), penicillin (100 U/mL), and Streptomycin (0.1 mg/mL). For determination of IC50, cells were exposed continuously for four days to varying concentrations of drug, and MTT assays were performed at the end of the fourth day. […] All assays were performed at least twice in six replicate wells.

[2] = MTT cytotoxicity assay, KB3-1 parent cell line; format: cell-based; settings: human, KB3-1 cells (parent cell line), KB3-1 parent cells, continuous exposure four days
Method: as §1, §2
(§3) The cytotoxicity of the representative compounds of the invention were also tested against cell line KB3-1 (parent cell line), KBV-1 (a variant that overexpresses efflux transporter MDR1) and KBH5.0 (a variant that overexpresses BCRP). Differences in the relative cytotoxicity between the parent and variant cell lines may be indicative of a compound that is a substrate for an efflux transporter. […] Accordingly, compounds of the invention may be useful to treat tumors that are resistant to other anticancer agents, including anticancer agents that are susceptible to efflux by BCRP (e.g. anthracyclines, mitoxantrone, topotecan, irinotecan, bisanthrone, doxorubicin, daunorubicin, and epirubin.

BCRP = assay: MTT cytotoxicity assay, KBH5.0 efflux transporter cell line; format: cell-based; settings: human, KBH5.0 cells (KB3-1 variant that overexpresses BCRP); KBH5.0 cells (BCRP overexpressing), continuous exposure four days, MTT
Method: as §1, §2, §3

[3] = tested on: CPT-K5 (camptothecin-resistant variant cell line of RPMI 8402); assay: MTT cytotoxicity assay (Test B), CPT-K5; format: cell-based, human; settings: CPT-K5 cells, continuous exposure four days
Method: as §1, §2

MDR1 = assay: MTT cytotoxicity assay, KBV-1 efflux transporter cell line; format: cell-based; settings: human, KBV-1 cells (KB3-1 variant that overexpresses MDR1), KBV-1 cells (MDR1 overexpressing), continuous exposure four days
Method: as §1, §2, §3

[4] = tested on: P388/CPT45 (CPT-resistant TOP1-deficient variant of P388); assay: MTT cytotoxicity assay (Test B), P388/CPT45; format: cell-based; settings: Mus musculus, P388CPT45, 96 h, P388/CPT45 cells, continuous exposure four days
Method: as §1, §2

[5] = tested on: P388 mouse leukemia cell line; assay: MTT cytotoxicity assay (Test B), P388; format: cell-based; settings: 96 h, P388 cells, continuous exposure four days
Method: as §1, §2

[6] = tested on: KBH5.0 (a variant that overexpresses BCRP); assay: MTT cytotoxicity assay, KBH5.0 efflux transporter cell line; format: cell-based; settings: inferred from relative cytotoxicity KB3-1 vs KBH5.0
Method: as §1, §2, §3

SMILES | IC50 ([1]; Homo sapiens, 96 h) | IC50 at 4 days [2] | IC50 at 4 days (BCRP) | IC50 ([3]; Homo sapiens, 96 h) | IC50 at 4 days (MDR1) | IC50 [4] | IC50 [5] | IC50 ([1]; Homo sapiens, RPMI 8402, 96 h) | IC50 ([3]; Homo sapiens, CPT-K5, 96 h) | IC50 [1] | substrate for efflux transporter BCRP [6] | IC50 [3]
COc1cc2c(cc1OC(=O)N1CCC(N3CCCCC3)CC1)c(=O)n(CCN(C)C)c1c3cc4c(cc3ncc21)OCO4 [Example 10, 5-(2-(dimethylamino)ethyl)-9-methoxy-2,3-methylenedioxy-6-oxo-5,6-dihydrodibenzo[c,h][1,6]naphthyridin-8-yl 1,4′-bipiperidine-1′-carboxylate] | 0.55 µM | 0.75 µM | 1.1 µM | 1.5 µM | 1.6 µM | 0.5 µM | 0.5 µM |  |  |  |  | 
COc1cc2c(cc1OC(=O)CCC1CCCC1)c(=O)n(CCN(C)C)c1c3cc4c(cc3ncc21)OCO4 [Example 5, 5-(2-(dimethylamino)ethyl)-9-methoxy-2,3-methylenedioxy-6-oxo-5,6-dihydrodibenzo[c,h][1,6]naphthyridin-8-yl (3-cyclopentyl)propionate] |  | 0.003 µM | 0.013 µM |  | 0.058 µM | 0.07 µM | 0.002 µM | 0.003 µM | 0.33 µM |  |  | 
CCOC(=O)Oc1cc2c(=O)n(CCN(C)C)c3c4cc5c(cc4ncc3c2cc1OC)OCO5 [Example 6, 5-(2-(dimethylamino)ethyl)-9-methoxy-2,3-methylenedioxy-6-oxo-5,6-dihydrodibenzo[c,h][1,6]naphthyridin-8-yl ethyl carbonate] |  | 0.001 µM | 0.008 µM |  | 0.003 µM | 0.06 µM | 0.0002 µM | 0.0006 µM | 0.25 µM |  |  | 
COc1cc2c(cc1OC(=O)c1ccccc1C)c(=O)n(CCN(C)C)c1c3cc4c(cc3ncc21)OCO4 [Example 2, 5-(2-(dimethylamino)ethyl)-9-methoxy-2,3-methylenedioxy-6-oxo-5,6-dihydrodibenzo[c,h][1,6]naphthyridin-8-yl 2-methylbenzoate] |  | 0.04 µM | 0.04 µM |  | 0.2 µM | 0.4 µM | 0.03 µM | 0.07 µM | 2 µM | 0.05 µM | not a substrate for BCRP | 
COc1cc2c(cc1OC(C)=O)c(=O)n(CCN(C)C)c1c3cc4c(cc3ncc21)OCO4 [Example 3, 5-(2-(dimethylamino)ethyl)-9-methoxy-2,3-methylenedioxy-6-oxo-5,6-dihydrodibenzo[c,h][1,6]naphthyridin-8-yl acetate] |  | 0.007 µM | 0.025 µM |  | 0.06 µM | 0.3 µM | 0.004 µM | 0.009 µM | 0.7 µM |  |  | 
COc1cc2c(cc1OC(=O)c1ccccc1)c(=O)n(CCN(C)C)c1c3cc4c(cc3ncc21)OCO4 [Example 1, 5-(2-(dimethylamino)ethyl)-9-methoxy-2,3-methylenedioxy-6-oxo-5,6-dihydrodibenzo[c,h][1,6]naphthyridin-8-yl benzoate] |  | 0.002 µM | 0.025 µM |  | 0.06 µM | 0.12 µM | 0.002 µM | 0.006 µM | 0.5 µM | 0.009 µM |  | 0.55 µM
COc1cc2c(cc1OC(=O)C(C)(C)C)c(=O)n(CCN(C)C)c1c3cc4c(cc3ncc21)OCO4 [Example 4, 5-(2-(dimethylamino)ethyl)-9-methoxy-2,3-methylenedioxy-6-oxo-5,6-dihydrodibenzo[c,h][1,6]naphthyridin-8-yl pivalate] |  | 0.002 µM | 0.017 µM |  | 0.024 µM | 0.25 µM | 0.003 µM | 0.0007 µM | 0.3 µM |  |  | 
COc1cc2c(cc1OC(=O)OC(C)(C)C)c(=O)n(CCN(C)C)c1c3cc4c(cc3ncc21)OCO4 [Example 7, tert-butyl 5-(2-(dimethylamino)ethyl)-9-methoxy-2,3-methylenedioxy-6-oxo-5,6-dihydrodibenzo[c,h][1,6]naphthyridin-8-yl carbonate] |  | 0.002 µM | 0.009 µM |  | 0.004 µM | 0.08 µM | 0.001 µM | 0.0005 µM | 0.31 µM |  |  | 
COc1cc2c(cc1OC(=O)N(C)C)c(=O)n(CCN(C)C)c1c3cc4c(cc3ncc21)OCO4 [Example 9, 5-(2-(dimethylamino)ethyl)-9-methoxy-2,3-methylenedioxy-6-oxo-5,6-dihydrodibenzo[c,h][1,6]naphthyridin-8-yl dimethylcarbamate] | 1.7 µM | 0.4 µM | 2 µM | > 10 µM | 3 µM | 3.8 µM | 1.3 µM |  |  |  |  | 
CCNC(=O)Oc1cc2c(=O)n(CCN(C)C)c3c4cc5c(cc4ncc3c2cc1OC)OCO5 [Example 8, 5-(2-(dimethylamino)ethyl)-9-methoxy-2,3-methylenedioxy-6-oxo-5,6-dihydrodibenzo[c,h][1,6]naphthyridin-8-yl ethylcarbamate] | 0.003 µM | 0.004 µM | 0.015 µM | 0.5 µM | 0.04 µM | 0.09 µM | 0.003 µM |  |  |  |  | 
